Test system: MV-4-11 cells
Experiment: Gene expression microarray analysis (Affymetrix PrimeView) and GSEA
Assay type: cell-based, human
Set-up: RFU PODN (11730768_x_at) / Fold change /veh PODN (11730768_x_at) / RFU LINC00158 (11744669_a_at) / Fold change /veh LINC00158 (11744669_a_at) / RFU DUSP10 (11751237_a_at) / Fold change /veh DUSP10 (11751237_a_at) / RFU ID3 (11757404_x_at) / Fold change /veh ID3 (11757404_x_at) / RFU PLEKHG5 (11737974_s_at) / Fold change /veh PLEKHG5 (11737974_s_at) / RFU LRRC4B (11730491_at) / Fold change /veh LRRC4B (11730491_at) / RFU GIMAP4 (11747438_a_at) / Fold change /veh GIMAP4 (11747438_a_at) / RFU KRT8 (11758183_x_at) / Fold change /veh KRT8 (11758183_x_at) / RFU CNN1 (11734310_a_at) / Fold change /veh CNN1 (11734310_a_at) / RFU VPS37D (11726825_at) / Fold change /veh VPS37D (11726825_at) / RFU C10orf10 (11716522_x_at) / Fold change /veh C10orf10 (11716522_x_at) / RFU KIR2DL2 /// KIR2DL4 /// KIR2DL5A /// KIR2DL5B /// KIR2DS1 /// KIR2DS2 /// KIR2DS3 /// KIR2DS4 /// KIR3DL3 /// KIR3DL3 /// KIR3DS1 (11738374_at) / Fold change /veh KIR2DL2 /// KIR2DL4 /// KIR2DL5A /// KIR2DL5B /// KIR2DS1 /// KIR2DS2 /// KIR2DS3 /// KIR2DS4 /// KIR3DL3 /// KIR3DL3 /// KIR3DS1 (11738374_at) / RFU C1QL1 (11718748_at) / Fold change /veh C1QL1 (11718748_at) / RFU TMPRSS4 (11747572_a_at) / Fold change /veh TMPRSS4 (11747572_a_at) / RFU HAMP (11756126_x_at) / Fold change /veh HAMP (11756126_x_at) / RFU RNFT2 (11725882_a_at) / Fold change /veh RNFT2 (11725882_a_at) / RFU NR4A2 (11747474_a_at) / Fold change /veh NR4A2 (11747474_a_at) / RFU ABCC12 (11746883_a_at) / Fold change /veh ABCC12 (11746883_a_at) / RFU TMEM136 (11760407_x_at) / Fold change /veh TMEM136 (11760407_x_at) / RFU CLDN22 /// WWC2 (11732394_at) / Fold change /veh CLDN22 /// WWC2 (11732394_at) / RFU HLA-DPB1 (11760878_x_at) / Fold change /veh HLA-DPB1 (11760878_x_at) / RFU SPINT1 (11716480_a_at) / Fold change /veh SPINT1 (11716480_a_at) / RFU GAP43 (11754022_s_at) / Fold change /veh GAP43 (11754022_s_at) / RFU A4GNT (11735810_at) / Fold change /veh A4GNT (11735810_at) / RFU PRB3 (11715151_x_at) / Fold change /veh PRB3 (11715151_x_at) / RFU TUBB4B (11761932_at) / Fold change /veh TUBB4B (11761932_at) / RFU CAPN14 (11732068_a_at) / Fold change /veh CAPN14 (11732068_a_at) / RFU TMCC2 (11721928_a_at) / Fold change /veh TMCC2 (11721928_a_at) / RFU IRGQ (11745062_a_at) / Fold change /veh IRGQ (11745062_a_at) / RFU FAM174B (11720279_a_at) / Fold change /veh FAM174B (11720279_a_at) / RFU TMPRSS4 (11748680_a_at) / Fold change /veh TMPRSS4 (11748680_a_at) / RFU FAM212B (11763350_a_at) / Fold change /veh FAM212B (11763350_a_at) / RFU PLEKHG5 (11743358_a_at) / Fold change /veh PLEKHG5 (11743358_a_at) / RFU ZSCAN30 (11745921_a_at) / Fold change /veh ZSCAN30 (11745921_a_at) / RFU CMKLR1 (11741424_a_at) / Fold change /veh CMKLR1 (11741424_a_at) / RFU LOC101060620 /// MAPK8IP1 (11723275_at) / Fold change /veh LOC101060620 /// MAPK8IP1 (11723275_at) / RFU SPTSSB (11747773_x_at) / Fold change /veh SPTSSB (11747773_x_at) / RFU PRSS12 (11739890_at) / Fold change /veh PRSS12 (11739890_at) / RFU BIN1 (11741810_x_at) / Fold change /veh BIN1 (11741810_x_at) / RFU WNT11 (11732464_a_at) / Fold change /veh WNT11 (11732464_a_at) / RFU C10orf10 (11716521_a_at) / Fold change /veh C10orf10 (11716521_a_at) / RFU C5orf56 (11738089_at) / Fold change /veh C5orf56 (11738089_at) / RFU CYB561 (11721691_x_at) / Fold change /veh CYB561 (11721691_x_at) / RFU ANKRD19P (11752326_a_at) / Fold change /veh ANKRD19P (11752326_a_at) / RFU OR2T12 /// OR2T33 /// OR2T8 (11738714_s_at) / Fold change /veh OR2T12 /// OR2T33 /// OR2T8 (11738714_s_at) / RFU VCAN (11748164_a_at) / Fold change /veh VCAN (11748164_a_at) / RFU JSRP1 (11732532_at) / Fold change /veh JSRP1 (11732532_at) / RFU KRTAP10-11 (11738290_x_at) / Fold change /veh KRTAP10-11 (11738290_x_at) / RFU MYO3A (11730013_a_at) / Fold change /veh MYO3A (11730013_a_at) / RFU EBF3 (11725865_a_at) / Fold change /veh EBF3 (11725865_a_at) / RFU CAMK2N1 (11719241_x_at) / Fold change /veh CAMK2N1 (11719241_x_at) / RFU C5orf56 (11738088_a_at) / Fold change /veh C5orf56 (11738088_a_at) / RFU OLFML3 (11715873_a_at) / Fold change /veh OLFML3 (11715873_a_at) / RFU LOC100653217 /// NTM (11731650_a_at) / Fold change /veh LOC100653217 /// NTM (11731650_a_at) / RFU MAPK11 (11762145_a_at) / Fold change /veh MAPK11 (11762145_a_at) / RFU FIZ1 (11724087_x_at) / Fold change /veh FIZ1 (11724087_x_at) / RFU OASL (11726364_x_at) / Fold change /veh OASL (11726364_x_at) / RFU SOX15 (11748057_x_at) / Fold change /veh SOX15 (11748057_x_at) / RFU CD79A (11719716_a_at) / Fold change /veh CD79A (11719716_a_at) / RFU HIST1H1D (11736915_at) / Fold change /veh HIST1H1D (11736915_at) / RFU CASKIN2 (11723855_a_at) / Fold change /veh CASKIN2 (11723855_a_at) / RFU LOC730098 (11760151_x_at) / Fold change /veh LOC730098 (11760151_x_at) / RFU OR4N2 (11742367_at) / Fold change /veh OR4N2 (11742367_at) / RFU PRRT2 (11749266_a_at) / Fold change /veh PRRT2 (11749266_a_at) / RFU SNX32 (11753110_a_at) / Fold change /veh SNX32 (11753110_a_at) / RFU CDHR5 (11726645_a_at) / Fold change /veh CDHR5 (11726645_a_at) / RFU RCAN1 (11760418_a_at) / Fold change /veh RCAN1 (11760418_a_at) / RFU FAM167A (11723789_a_at) / Fold change /veh FAM167A (11723789_a_at) / RFU FAM26E (11764081_at) / Fold change /veh FAM26E (11764081_at) / RFU ISYNA1 (11749810_s_at) / Fold change /veh ISYNA1 (11749810_s_at) / RFU ACY1 (11761880_at) / Fold change /veh ACY1 (11761880_at) / RFU 11764098_at / Fold change /veh 11764098_at / RFU SAMD14 (11745864_x_at) / Fold change /veh SAMD14 (11745864_x_at) / RFU NPB (11741838_a_at) / Fold change /veh NPB (11741838_a_at) / RFU TMPRSS6 (11731388_a_at) / Fold change /veh TMPRSS6 (11731388_a_at) / RFU KRTAP10-2 (11738614_at) / Fold change /veh KRTAP10-2 (11738614_at) / RFU ARHGAP8 /// PRR5-ARHGAP8 (11727945_x_at) / Fold change /veh ARHGAP8 /// PRR5-ARHGAP8 (11727945_x_at) / RFU KRTAP5-7 /// NADSYN1 (11734609_at) / Fold change /veh KRTAP5-7 /// NADSYN1 (11734609_at) / RFU RASL12 (11751679_a_at) / Fold change /veh RASL12 (11751679_a_at) / RFU CDKN2B (11736163_a_at) / Fold change /veh CDKN2B (11736163_a_at) / RFU PRF1 (11729649_at) / Fold change /veh PRF1 (11729649_at) / RFU, ZNF638 /// ZNF638-IT1 / Fold change vs veh, ZNF638 /// ZNF638-IT1 / RFU, PANK3 / Fold change vs veh, PANK3 / RFU, SH3YL1 / Fold change vs veh, SH3YL1 / RFU, ZEB2 / Fold change vs veh, ZEB2 / RFU, NRIP1 / Fold change vs veh, NRIP1 / RFU, PTTG1IP / Fold change vs veh, PTTG1IP / RFU, CAPN2 / Fold change vs veh, CAPN2 / RFU, MED14 / Fold change vs veh, MED14 / RFU, SNORA58 / Fold change vs veh, SNORA58 / RFU, C1orf63 / Fold change vs veh, C1orf63 / RFU, LRRFIP1 / Fold change vs veh, LRRFIP1 / RFU, NDUFAF7 / Fold change vs veh, NDUFAF7 / RFU, SLC12A2 / Fold change vs veh, SLC12A2 / RFU, IBTK / Fold change vs veh, IBTK / RFU, ESF1 / Fold change vs veh, ESF1 / Fold change vs veh, TMEM50B / RFU, TAOK1 / Fold change vs veh, TAOK1 / RFU, ACBD3 / Fold change vs veh, ACBD3 / RFU, TMA16 / Fold change vs veh, TMA16 / RFU, RWDD3 / Fold change vs veh, RWDD3 / RFU, BCAT1 / Fold change vs veh, BCAT1 / RFU, EDEM3 / Fold change vs veh, EDEM3 / RFU, TMEM33 / Fold change vs veh, TMEM33 / RFU, WDR75 / Fold change vs veh, WDR75 / RFU, AHCTF1 / Fold change vs veh, AHCTF1 / RFU, TFRC / Fold change vs veh, TFRC / RFU, ZDHHC17 / Fold change vs veh, ZDHHC17 / RFU, NOM1 / Fold change vs veh, NOM1 / RFU, ARL8B / Fold change vs veh, ARL8B / RFU, ZBTB11 / Fold change vs veh, ZBTB11 / RFU, TAMM41 / Fold change vs veh, TAMM41 / RFU, KIAA1704 /// LOC100996395 / Fold change vs veh, KIAA1704 /// LOC100996395 / RFU, ING1 / Fold change vs veh, ING1 / RFU, TRMT61B / Fold change vs veh, TRMT61B / RFU, FUBP3 / Fold change vs veh, FUBP3 / RFU, TP53 / Fold change vs veh, TP53 / RFU, TNKS2 / Fold change vs veh, TNKS2 / RFU, ZFP14 / Fold change vs veh, ZFP14 / RFU, ACTR2 / Fold change vs veh, ACTR2 / RFU, PPP3R1 / Fold change vs veh, PPP3R1 / RFU, PIK3R1 / Fold change vs veh, PIK3R1 / RFU, HNRNPA1 / Fold change vs veh, HNRNPA1 / RFU, RNF170 / Fold change vs veh, RNF170 / RFU, ZNF28 / Fold change vs veh, ZNF28 / RFU, RNGTT / Fold change vs veh, RNGTT / RFU, OGT / Fold change vs veh, OGT / RFU, BRD1 / Fold change vs veh, BRD1 / RFU, MARS / Fold change vs veh, MARS / RFU, ZNF655 / Fold change vs veh, ZNF655 / RFU, FAHD1 / Fold change vs veh, FAHD1 / RFU, BDP1 / Fold change vs veh, BDP1 / RFU, LRRCC1 / Fold change vs veh, LRRCC1 / RFU, ARID1A / Fold change vs veh, ARID1A / RFU, ZNF146 / Fold change vs veh, ZNF146 / RFU, ZNF330 / Fold change vs veh, ZNF330 / RFU, GPN3 / Fold change vs veh, GPN3 / RFU, C9orf123 / Fold change vs veh, C9orf123 / RFU, N4BP2L2 / Fold change vs veh, N4BP2L2 / RFU, ARFIP1 / Fold change vs veh, ARFIP1 / RFU, FAM179B / Fold change vs veh, FAM179B / RFU, BCL10 / Fold change vs veh, BCL10 / RFU, UHRF1BP1L / Fold change vs veh, UHRF1BP1L / RFU, BET1 / Fold change vs veh, BET1 / RFU, CNOT2 / Fold change vs veh, CNOT2 / RFU, ZNF268 / Fold change vs veh, ZNF268 / Fold change vs veh, ZNF507 / RFU, DGCR2 / Fold change vs veh, DGCR2 / RFU, WDSUB1 / Fold change vs veh, WDSUB1 / Fold change vs veh, HSP90B1 /// MIR3652 / RFU, ADSS / Fold change vs veh, ADSS / RFU, GK / Fold change vs veh, GK / RFU, ZNF148 / Fold change vs veh, ZNF148 / RFU, TAF9 / Fold change vs veh, TAF9 / RFU, SLC1A5 / Fold change vs veh, SLC1A5 / RFU, SLMO2 / Fold change vs veh, SLMO2 / RFU, ABCC4 / Fold change vs veh, ABCC4 / RFU, LOC101060439 /// RAP1B / Fold change vs veh, LOC101060439 /// RAP1B / RFU, RFX7 / Fold change vs veh, RFX7 / RFU, GTPBP10 / Fold change vs veh, GTPBP10 / RFU, CNEP1R1 / Fold change vs veh, CNEP1R1 / RFU, BIVM-ERCC5 /// ERCC5 / Fold change vs veh, BIVM-ERCC5 /// ERCC5 / RFU, ILF3 / Fold change vs veh, ILF3 / RFU 11762660_at / Fold change /veh 11762660_at / RFU VCAN (11757783_s_at) / Fold change /veh VCAN (11757783_s_at) / RFU DDX43 (11728927_at) / Fold change /veh DDX43 (11728927_at) / RFU KRT8 (11758188_x_at) / Fold change /veh KRT8 (11758188_x_at) / RFU NKD1 (11759106_at) / Fold change /veh NKD1 (11759106_at) / RFU SRD5A1 (11742802_a_at) / Fold change /veh SRD5A1 (11742802_a_at) / RFU TPSAB1 /// TPSB2 (11721975_s_at) / Fold change /veh TPSAB1 /// TPSB2 (11721975_s_at) / RFU GSTM3 (11746129_a_at) / Fold change /veh GSTM3 (11746129_a_at) / RFU IL23R (11737362_x_at) / Fold change /veh IL23R (11737362_x_at) / RFU TMEM51 (11727254_a_at) / Fold change /veh TMEM51 (11727254_a_at) / RFU PIWIL2 (11732686_x_at) / Fold change /veh PIWIL2 (11732686_x_at) / RFU ORM1 (11744905_x_at) / Fold change /veh ORM1 (11744905_x_at) / RFU CCDC152 (11743942_at) / Fold change /veh CCDC152 (11743942_at) / RFU ECM1 (11717891_a_at) / Fold change /veh ECM1 (11717891_a_at) / RFU IL23R (11748794_a_at) / Fold change /veh IL23R (11748794_a_at) / RFU TNFAIP8L3 (11732012_x_at) / Fold change /veh TNFAIP8L3 (11732012_x_at) / RFU MBOAT4 (11741988_at) / Fold change /veh MBOAT4 (11741988_at) / RFU 11764193_at / Fold change /veh 11764193_at / RFU TMEM53 (11763286_at) / Fold change /veh TMEM53 (11763286_at) / RFU MAGEB2 (11727129_at) / Fold change /veh MAGEB2 (11727129_at) / RFU TMEM200A (11744735_a_at) / Fold change /veh TMEM200A (11744735_a_at) / RFU CCDC152 (11751479_a_at) / Fold change /veh CCDC152 (11751479_a_at) / RFU FAM211A (11726209_a_at) / Fold change /veh FAM211A (11726209_a_at) / RFU RGS16 (11746705_a_at) / Fold change /veh RGS16 (11746705_a_at) / RFU VCAN (11755009_s_at) / Fold change /veh VCAN (11755009_s_at) / RFU RHOB (11743442_s_at) / Fold change /veh RHOB (11743442_s_at) / RFU RGS16 (11720943_a_at) / Fold change /veh RGS16 (11720943_a_at) / RFU RGS16 (11720944_at) / Fold change /veh RGS16 (11720944_at) / RFU, VPS4B / Fold change vs veh, VPS4B / RFU, CREB1 / Fold change vs veh, CREB1 / RFU, DNAJC13 / Fold change vs veh, DNAJC13 / RFU, GNAQ / Fold change vs veh, GNAQ / RFU, CDK5R1 / Fold change vs veh, CDK5R1 / RFU, ZRANB3 / Fold change vs veh, ZRANB3 / RFU, CUL4A / Fold change vs veh, CUL4A / RFU, CCNY / Fold change vs veh, CCNY / RFU, UFL1 / Fold change vs veh, UFL1 / RFU, COG3 / Fold change vs veh, COG3 / RFU, DIAPH2 / Fold change vs veh, DIAPH2 / RFU, SKA2 / Fold change vs veh, SKA2 / RFU, AFF3 / Fold change vs veh, AFF3 / RFU, LMF1 / Fold change vs veh, LMF1 / RFU, IPO11 / Fold change vs veh, IPO11 / RFU, DFFB / Fold change vs veh, DFFB / RFU, FOXP1 / Fold change vs veh, FOXP1 / RFU, CARD8 / Fold change vs veh, CARD8 / RFU, STRN3 / Fold change vs veh, STRN3 / RFU, ADK / Fold change vs veh, ADK / RFU, RASSF2 / Fold change vs veh, RASSF2 / RFU, WIPF1 / Fold change vs veh, WIPF1 / RFU, LARP1B / Fold change vs veh, LARP1B / RFU, RASA1 / Fold change vs veh, RASA1 / RFU, RB1 / Fold change vs veh, RB1 / RFU, PPFIA1 / Fold change vs veh, PPFIA1 / RFU, MAT2A / Fold change vs veh, MAT2A / RFU, CCT5 / Fold change vs veh, CCT5 / RFU, WDR92 / Fold change vs veh, WDR92 / RFU, CUX1 / Fold change vs veh, CUX1 / RFU, TTC7A / Fold change vs veh, TTC7A / RFU, TMEM135 / Fold change vs veh, TMEM135 / RFU, DEPTOR / Fold change vs veh, DEPTOR / RFU, CPM / Fold change vs veh, CPM / RFU, DNAJB6 / Fold change vs veh, DNAJB6 / RFU, CACNA2D3 / Fold change vs veh, CACNA2D3 / RFU, DTX4 / Fold change vs veh, DTX4 / RFU, TFCP2 / Fold change vs veh, TFCP2 / RFU, GMCL1 /// GMCL1P1 / Fold change vs veh, GMCL1 /// GMCL1P1 / RFU, AEBP2 / Fold change vs veh, AEBP2 / RFU, SNHG1 /// SNORD22 /// SNORD25 /// SNORD26 /// SNORD27 /// SNORD28 /// SNORD29 /// SNORD31 / Fold change vs veh, SNHG1 /// SNORD22 /// SNORD25 /// SNORD26 /// SNORD27 /// SNORD28 /// SNORD29 /// SNORD31 / Fold change (Aza/veh), C12orf56 (ProbeSet 11735607_a_at) / Fold change (ACY-1035/veh), C12orf56 (ProbeSet 11735607_a_at) / Fold change (Aza/veh), FGFR1OP (ProbeSet 11751329_s_at) / Fold change (ACY-1035/veh), FGFR1OP (ProbeSet 11751329_s_at) / Fold change (Aza/veh), VPS36 (ProbeSet 11739960_a_at) / Fold change (ACY-1035/veh), VPS36 (ProbeSet 11739960_a_at) / RFU SYPL1 (11715823_x_at) / Fold change /veh SYPL1 (11715823_x_at) / RFU IGFBP7 (11715501_s_at) / Fold change /veh IGFBP7 (11715501_s_at) / RFU REEP3 (11722064_at) / Fold change /veh REEP3 (11722064_at) / RFU IGLL1 (11728026_x_at) / Fold change /veh IGLL1 (11728026_x_at): dose or concentration left out as unconfirmed
Settings: ProbeSet 11724526_at; LIST B

Nc1ccc(-c2cccs2)cc1NC(=O)c1ccc2c(c1)cc(C1CC1)n2CCN1CCOCC1 [ACY-1035] was tested, and the “RFU, FAHD1” value was 149.86 RFU.
